Measured values from patent EP1379283B1, “IDENTIFICATION OF TARGET-SPECIFIC FOLDING SITES IN PEPTIDES AND PROTEINS” (Palatin Technologies, Inc., priority 2000, dated 2002).
Square brackets hold non-standard residues; d marks the D form. Ends that are not written are not given here. Nle = CCCC[C@H](N)C(=O)O; Sar = CNCC(=O)O

Columns and labels:
uPA receptor = biological target: T1, uPA receptor (Homo sapiens, UniProt Q03405); assay: uPA receptor-binding assay using U937 cells and ATF as competitive ligand; settings: for % Inhibition at 1 µM: 1 µM metallopeptide, U937 cells, ATF as competitive receptor binding ligand
T1 construct: endogenous in cells; host or cells: U937 cells

MC1-R = biological target: T2, MC1-R (Mus musculus, UniProt Q01727); assay: competitive inhibition binding assay with 125I-NDP-alpha-MSH, B-16 mouse melanoma cell membranes; settings: for % Inhibition at 1 µM MC-1: 0.4 nM 125I-NDP-alpha-MSH, B-16 mouse melanoma cell membranes, mean of triplicate; for receptor specificity MCR-1 versus MCR-4: conclusion from Table 2
T2 construct: B-16 mouse melanoma cells (containing MC1-R); endogenous in cells; host or cells: B-16 mouse melanoma cells (membranes)
Description: (§1) Ac-Nle-Ala-His-D-Phe-Arg-Trp-NH2 is a known receptor-binding sequence for melanotropin receptors. The K, values for binding to MCR-1 and -4 were measured to be 0.1 µM and 2 µM respectively. A series of metallopeptides based on this sequence were synthesized by inserting a Cys residue after the 2 position and through the n+1 position and complexing the resulting Cys-containing peptide with an Re-oxo metal ion core as described Example 1. The resulting metallopeptides were screened for inhibiting the binding of 125-I-NDP-alpha-MSH radioligand using B-16 mouse melanoma cells for MCR-1 and cloned human MCR-[…] and -4 receptor transfected 293 cells.
(§2) The competitive inhibition binding assay was conducted using membranes prepared from hMC3-R, hMC4-R, hMC5-R, and B-16 mouse melanoma cells (containing MC1-R) using 0.4 nM ^125I-NDP-alpha-MSH (New England Nuclear, Boston, MA, USA) in 50 mM HEPES buffer containing 1 mM MgCl2, 2 mM CaCl2, and 5 mM KCI, at pH 7.2. The assay tube also contained a chosen concentration of the test peptide of this invention, complexed to a rhenium metal ion as indicated, for determining its efficacy in inhibiting the binding of ^125I-NDP-alpha-MSH to its receptor. Non-specific binding was measured by complete inhibition of binding of ^125I-NDP-alpha-MSH in the assay with the presence of 1 µM alpha-MSH. Incubation was for 90 minutes at room temperature, after which the assay mixture was filtered and the membranes washed three times with ice cold buffer. The filter was dried and counted in a gamma counter for remaining radioactivity bound to the membranes. 100% specific binding was defined as the difference in radioactivity (cpm) bound to cell membranes in the absence and presence of 1 µM alpha-MSH. The cpm obtained in presence of test compounds were normalized with respect to 100% specific binding to determine the percent inhibition of ^125I-NDP-alpha MSH binding. Each assay was conducted in triplicate and the actual mean valves are described in Table 2.

hMC3-R = biological target: T3, hMC3-R (Homo sapiens, UniProt P41968); assay: competitive inhibition binding assay with 125I-NDP-alpha-MSH, hMC3-R membranes; settings: 0.4 nM 125I-NDP-alpha-MSH, mean of triplicate
T3 construct: expressed in transfected cells; host or cells: 293 cells
Description: as §1, §2

hMC4-R = biological target: T4, hMC4-R (Homo sapiens, UniProt P32245); assay: competitive inhibition binding assay with 125I-NDP-alpha-MSH, hMC4-R membranes; settings: 0.4 nM 125I-NDP-alpha-MSH, mean of triplicate
T4 construct: expressed in transfected cells; host or cells: 293 cells
Description: as §1, §2

hMC5-R = biological target: T5, hMC5-R (Homo sapiens, UniProt P33032); assay: competitive inhibition binding assay with 125I-NDP-alpha-MSH, hMC5-R membranes; settings: 0.4 nM 125I-NDP-alpha-MSH, mean of triplicate
T5 construct: expressed in transfected cells; host or cells: 293 cells are named only for 'MCR-2, -3 and -4'; for MC5-R the host is inferred
Description: as §2

angiotensin-II receptor = biological target: T6, angiotensin-II receptor (Homo sapiens, UniProt P30556); assay: angiotensin-II receptor binding, radioiodinated angiotensin II ligand, membranes of human neuroblastoma cells (KAN-TS); settings: for % Inhibition at 1 µM: KAN-TS cell membranes, 125I-Tyr4, Sar1, Ile8-Angiotensin II
T6 construct: cell membranes obtained from human neuroblastoma cells (KAN-TS); endogenous in cells; host or cells: KAN-TS human neuroblastoma cells (membranes)
T6 sequence (P30556 1-359): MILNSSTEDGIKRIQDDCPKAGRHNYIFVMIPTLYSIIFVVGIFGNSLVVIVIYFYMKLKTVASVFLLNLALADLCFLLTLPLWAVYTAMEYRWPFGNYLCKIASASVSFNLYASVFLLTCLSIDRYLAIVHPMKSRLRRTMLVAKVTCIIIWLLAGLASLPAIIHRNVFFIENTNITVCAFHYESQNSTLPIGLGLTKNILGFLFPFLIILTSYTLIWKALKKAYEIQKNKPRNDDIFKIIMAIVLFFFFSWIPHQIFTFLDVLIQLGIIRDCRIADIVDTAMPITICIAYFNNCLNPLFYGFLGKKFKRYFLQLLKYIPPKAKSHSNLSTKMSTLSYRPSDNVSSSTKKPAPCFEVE
Description: The screening of compounds for binding to the angiotensin-II receptor was performed using cell membranes obtained from human neuroblastoma cells (KAN-TS). The assay was performed in triplicates, generally as described in Example 4 for oxytocin, except for measurement of receptor bound radioactivity. For angiotensin, a radioiodinated tracer ligand was used (instead of a tritiated ligand), which radioiodinated tracer facilitated direct measurement of bound radioactivity using a gamma counter. A final 1-3 nM concentration of ^125I-Tyr^4, Sar^1, Ile^8-Angiotensin II ligand (obtained from Perkin Elemer - NEN Life Sciences) was used as radiotracer and angiotensin-II (1 µM final assay concentration) was used to measure non-specific binding. After filtration of the incubation medium, followed by washings, drying the filters and punching the filters into test tubes, the filters were counted for radioactivity in a gamma counter. An activity profile for the test compounds was generated by ability to inhibit specific binding of the radiotracer to its receptor.

T2 sequence (Q01727 whole entry): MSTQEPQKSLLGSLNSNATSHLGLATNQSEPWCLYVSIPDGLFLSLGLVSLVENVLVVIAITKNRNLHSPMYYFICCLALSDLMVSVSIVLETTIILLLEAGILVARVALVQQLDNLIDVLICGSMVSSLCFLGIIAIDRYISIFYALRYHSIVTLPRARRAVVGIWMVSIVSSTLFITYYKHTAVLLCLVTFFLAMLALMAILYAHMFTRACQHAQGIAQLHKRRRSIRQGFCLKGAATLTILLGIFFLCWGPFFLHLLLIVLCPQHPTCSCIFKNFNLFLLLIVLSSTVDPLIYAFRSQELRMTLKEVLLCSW
T4 sequence (P32245 whole entry): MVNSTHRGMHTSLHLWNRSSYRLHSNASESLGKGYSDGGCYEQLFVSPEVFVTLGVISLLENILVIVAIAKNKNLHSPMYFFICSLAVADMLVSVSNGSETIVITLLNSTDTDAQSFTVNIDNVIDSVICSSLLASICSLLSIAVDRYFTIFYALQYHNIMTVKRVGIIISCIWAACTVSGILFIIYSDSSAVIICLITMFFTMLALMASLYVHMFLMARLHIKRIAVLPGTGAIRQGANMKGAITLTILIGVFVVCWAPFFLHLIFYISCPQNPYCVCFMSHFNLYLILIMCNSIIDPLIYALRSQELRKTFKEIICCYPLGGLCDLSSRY
T3 sequence (P41968 whole entry): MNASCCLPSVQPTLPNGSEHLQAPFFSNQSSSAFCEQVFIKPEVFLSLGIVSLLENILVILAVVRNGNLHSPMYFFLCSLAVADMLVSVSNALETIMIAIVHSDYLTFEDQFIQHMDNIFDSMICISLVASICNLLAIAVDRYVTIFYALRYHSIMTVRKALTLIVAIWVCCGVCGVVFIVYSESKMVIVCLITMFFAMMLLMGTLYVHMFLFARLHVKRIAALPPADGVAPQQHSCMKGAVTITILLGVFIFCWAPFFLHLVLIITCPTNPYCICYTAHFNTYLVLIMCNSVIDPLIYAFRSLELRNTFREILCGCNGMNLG
T5 sequence (P33032 whole entry): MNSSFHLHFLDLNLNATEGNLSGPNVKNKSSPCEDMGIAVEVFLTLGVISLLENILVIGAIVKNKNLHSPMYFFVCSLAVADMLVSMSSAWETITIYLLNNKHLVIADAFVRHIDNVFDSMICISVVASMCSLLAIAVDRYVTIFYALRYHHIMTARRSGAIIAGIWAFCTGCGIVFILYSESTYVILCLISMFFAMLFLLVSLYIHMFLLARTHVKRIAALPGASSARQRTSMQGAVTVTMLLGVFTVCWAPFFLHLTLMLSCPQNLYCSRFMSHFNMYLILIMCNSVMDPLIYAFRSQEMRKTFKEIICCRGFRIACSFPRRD
T1 sequence (Q03405 23-335): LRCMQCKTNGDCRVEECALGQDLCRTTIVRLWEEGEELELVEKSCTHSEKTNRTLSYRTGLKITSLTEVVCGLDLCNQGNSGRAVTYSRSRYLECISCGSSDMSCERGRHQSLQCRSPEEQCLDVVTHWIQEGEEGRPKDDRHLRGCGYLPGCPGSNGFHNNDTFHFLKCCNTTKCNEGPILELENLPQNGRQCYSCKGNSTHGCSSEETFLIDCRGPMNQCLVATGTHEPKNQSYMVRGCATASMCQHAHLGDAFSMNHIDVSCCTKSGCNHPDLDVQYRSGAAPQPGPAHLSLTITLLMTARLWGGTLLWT

Ac-Val-Ser-Asn-Lys-Tyr-Phe-Ser-Asn-Ile-His-Cys-Trp-NH2 (Ac-VSNKYFSNIHCW-NH2; not fully specified (bridges); printed as Ac-Val-Ser-Asn-Lys-Tyr-Phe-Ser-Asn-Ile-His-Cys-Trp-NH2; also: oxorhenium(V) N3S1 metal chelate (X-X-Cys)) [SEQ ID NO:3]
% Inhibition at 1 µM (uPA receptor): 106.0% | relative potency in uPA receptor binding (uPA receptor; compared with the other metallopeptides of Table 1): most potent

Ac-Val-Ser-Asn-Lys-Tyr-Phe-Ser-Asn-lie-His-Trp-Cys-NH2 [SEQ ID NO:12]
% Inhibition at 1 µM (uPA receptor): 0.0%

Ac-Val-Ser-Asn-Lys-Tyr-Phe-Ser-Cys-Asn-Ile-His-Trp-NH2 (Ac-VSNKYFSCNIHW-NH2; not fully specified (bridges); printed as Ac-Val-Ser-Asn-Lys-Tyr-Phe-Ser-Cys-Asn-Ile-His-Trp-NH2; also: oxorhenium(V) N3S1 metal chelate (X-X-Cys)) [SEQ ID NO:9]
% Inhibition at 1 µM (uPA receptor): 35.0%

Ac-Val-Ser-Cys-Asn-Lys-Tyr-Phe-Ser-Asn-Ile-His-Trp-NH2 (Ac-VSCNKYFSNIHW-NH2; not fully specified (bridges); printed as Ac-Val-Ser-Cys-Asn-Lys-Tyr-Phe-Ser-Asn-Ile-His-Trp-NH2; also: oxorhenium(V) N3S1 metal chelate (X-X-Cys)) [SEQ ID NO:4]
% Inhibition at 1 µM (uPA receptor): 0.0%

Ac-[Nle]ACH[dF]RW-NH2
% Inhibition at 1 µM MC-1 (MC1-R): 96% | % Inhibition at 1 µM MC-3 (hMC3-R): 47% | % Inhibition at 1 µM MC-4 (hMC4-R): 71% | % Inhibition at 1 µM MC-5 (hMC5-R): 64%

Ac-[Nle]AHC[dF]RW-NH2
% Inhibition at 1 µM MC-1 (MC1-R): 84% | % Inhibition at 1 µM MC-3 (hMC3-R): 9% | % Inhibition at 1 µM MC-4 (hMC4-R): 75% | % Inhibition at 1 µM MC-5 (hMC5-R): 58%

Ac-[Nle]AH[dF]CRW-NH2
% Inhibition at 1 µM MC-1 (MC1-R): 93% | % Inhibition at 1 µM MC-3 (hMC3-R): 15% | % Inhibition at 1 µM MC-4 (hMC4-R): 66% | % Inhibition at 1 µM MC-5 (hMC5-R): 57%

Ac-[Nle]AH[dF]RCW-NH2
% Inhibition at 1 µM MC-1 (MC1-R): 96% | receptor specificity MCR-1 versus MCR-4 (MC1-R): specific for the MCR-1 receptor but not the MCR-4 receptor | % Inhibition at 1 µM MC-3 (hMC3-R): 0% | % Inhibition at 1 µM MC-4 (hMC4-R): 17% | % Inhibition at 1 µM MC-5 (hMC5-R): 0%

Ac-[Nle]AH[dF]RWC-NH2
% Inhibition at 1 µM MC-1 (MC1-R): 91% | receptor specificity MCR-1 versus MCR-4 (MC1-R): binding both the MCR-1 and MCR-4 receptors | % Inhibition at 1 µM MC-3 (hMC3-R): 70% | % Inhibition at 1 µM MC-4 (hMC4-R): 98% | % Inhibition at 1 µM MC-5 (hMC5-R): 93%

Sar-Arg-Cys-Val-Tyr-Ile-His-Pro-Thr ([Sar]RCVYIHPT; not fully specified (bridges); printed as Sar-Arg-Cys-Val-Tyr-Ile-His-Pro-Thr; also: oxorhenium(V) metal complex) [SEQ ID NO:165]
% Inhibition at 1 µM (angiotensin-II receptor): 1%

Sar-Arg-Val-Cys-Tyr-Ile-His-Pro-Thr ([Sar]RVCYIHPT; not fully specified (bridges); printed as Sar-Arg-Val-Cys-Tyr-Ile-His-Pro-Thr; also: oxorhenium(V) metal complex) [SEQ ID NO:164]
% Inhibition at 1 µM (angiotensin-II receptor): 1%

Sar-Arg-Val-Tyr-Cys-Ile-His-Pro-Thr ([Sar]RVYCIHPT; not fully specified (bridges); printed as Sar-Arg-Val-Tyr-Cys-Ile-His-Pro-Thr; also: oxorhenium(V) metal complex) [SEQ ID NO:163]
% Inhibition at 1 µM (angiotensin-II receptor): 12%

Sar-Arg-Val-Tyr-Ile-Cys-His-Pro-Thr ([Sar]RVYICHPT; not fully specified (bridges); printed as Sar-Arg-Val-Tyr-Ile-Cys-His-Pro-Thr; also: oxorhenium(V) metal complex) [SEQ ID NO:162]
% Inhibition at 1 µM (angiotensin-II receptor): 20%

Sar-Arg-Val-Tyr-Ile-His-Cys-Gly-Thr ([Sar]RVYIHCGT; not fully specified (bridges); printed as Sar-Arg-Val-Tyr-Ile-His-Cys-Gly-Thr; also: oxorhenium(V) metal complex) [SEQ ID NO:166]
% Inhibition at 1 µM (angiotensin-II receptor): 11% | percent inhibition compared with SEQ ID NO:161 (angiotensin-II receptor; Gly substituted for Pro): significantly less

Sar-Arg-Val-Tyr-Ile-His-Cys-Pro-Thr ([Sar]RVYIHCPT; not fully specified (bridges); printed as Sar-Arg-Val-Tyr-Ile-His-Cys-Pro-Thr; also: oxorhenium(V) metal complex) [SEQ ID NO:161]
% Inhibition at 1 µM (angiotensin-II receptor): 60%

Sar-Arg-Val-Tyr-Ile-His-Gly-Cys-Thr ([Sar]RVYIHGCT; not fully specified (bridges); printed as Sar-Arg-Val-Tyr-Ile-His-Gly-Cys-Thr; also: oxorhenium(V) metal complex) [SEQ ID NO:160]
% Inhibition at 1 µM (angiotensin-II receptor): 5%
